Biological target: T1, fibrin gels (40 mg/mL fibrinogen, 33 U/mL thrombin) (Homo sapiens, UniProt P02671+P02675+P02679)
T1 construct: purchased Ethicon (Evicel)
T1 sequence (P02671 20-644 isoform P02671-2 limits assumed): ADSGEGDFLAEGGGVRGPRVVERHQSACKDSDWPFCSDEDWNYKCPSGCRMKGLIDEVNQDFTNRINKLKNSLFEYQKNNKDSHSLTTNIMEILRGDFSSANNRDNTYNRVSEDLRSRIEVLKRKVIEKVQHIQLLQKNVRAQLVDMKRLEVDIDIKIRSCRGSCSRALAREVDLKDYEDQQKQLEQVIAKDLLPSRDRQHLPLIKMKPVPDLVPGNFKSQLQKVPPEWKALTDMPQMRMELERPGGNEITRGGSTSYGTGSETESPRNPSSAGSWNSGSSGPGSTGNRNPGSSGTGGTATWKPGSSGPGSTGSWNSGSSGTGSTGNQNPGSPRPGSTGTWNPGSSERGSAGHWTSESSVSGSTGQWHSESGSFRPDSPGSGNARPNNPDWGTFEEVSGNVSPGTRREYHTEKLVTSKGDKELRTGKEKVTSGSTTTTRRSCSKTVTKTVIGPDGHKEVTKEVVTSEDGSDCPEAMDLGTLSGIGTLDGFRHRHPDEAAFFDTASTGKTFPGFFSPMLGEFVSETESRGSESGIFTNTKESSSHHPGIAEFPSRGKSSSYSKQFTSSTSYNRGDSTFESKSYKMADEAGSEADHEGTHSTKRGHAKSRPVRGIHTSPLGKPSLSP
T1 sequence (P02675 45-491 limits assumed): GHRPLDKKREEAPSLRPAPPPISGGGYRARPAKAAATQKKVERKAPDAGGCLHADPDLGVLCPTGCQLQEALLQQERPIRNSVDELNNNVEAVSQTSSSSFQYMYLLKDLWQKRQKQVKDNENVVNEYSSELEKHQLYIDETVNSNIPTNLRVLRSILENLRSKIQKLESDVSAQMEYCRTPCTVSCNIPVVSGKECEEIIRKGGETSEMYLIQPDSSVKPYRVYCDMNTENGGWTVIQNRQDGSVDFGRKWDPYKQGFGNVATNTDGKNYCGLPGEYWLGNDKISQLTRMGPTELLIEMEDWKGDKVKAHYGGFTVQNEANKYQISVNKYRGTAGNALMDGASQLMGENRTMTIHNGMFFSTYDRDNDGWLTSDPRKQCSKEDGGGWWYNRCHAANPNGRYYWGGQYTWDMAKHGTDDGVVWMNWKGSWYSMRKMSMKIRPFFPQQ
T1 sequence (P02679 27-437 isoform P02679-2 limits assumed): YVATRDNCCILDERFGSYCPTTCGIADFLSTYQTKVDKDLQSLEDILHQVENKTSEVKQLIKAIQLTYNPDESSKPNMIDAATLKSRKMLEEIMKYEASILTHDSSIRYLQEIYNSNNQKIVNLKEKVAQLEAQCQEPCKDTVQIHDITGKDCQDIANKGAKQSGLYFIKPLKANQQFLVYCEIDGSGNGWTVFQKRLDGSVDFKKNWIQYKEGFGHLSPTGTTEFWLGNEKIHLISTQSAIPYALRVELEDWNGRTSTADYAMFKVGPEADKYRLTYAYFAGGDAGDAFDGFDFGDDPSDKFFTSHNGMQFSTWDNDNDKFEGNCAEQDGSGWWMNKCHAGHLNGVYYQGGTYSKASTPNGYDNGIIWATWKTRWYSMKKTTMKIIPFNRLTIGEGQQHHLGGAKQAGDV
Experiment: Biexponential modeling of shear modulus (g′) versus time data
Settings: biexponential model; for time shift parameter (xc): 0.12% dye, n=3; for G′1: fast rate associated parameter; for G′1 / r1 / G′2 / r2 / xc: avg ± sd, n = 3; for r1: fast rate constant; for G′2: slow rate associated parameter; for r2: slow rate constant; for xc: time shift parameter
Description: Modeling was performed using the shear modulus (g′) versus time data for each time sweep performed with gels with a final concentration of 40 mg/mL fibrinogen, 33 U/mL thrombin, and 0.12% dye. A biexponential model was used as described elsewhere (see, e.g., Wedgwood et al., Macromolecular Symposia, 334:117-25 (2013); and Moreno-Arotzena et al., Materials (Basel), 8:1636-51 (2015)). The following equation was used: […]
This equation model assumes a fast (1) and slow (2) kinetic rate. As such G′1 and G′2 are the respective rate associated parameters, r1 and r2 are the respective rates constants, and Xc is a time shift parameter. Modeling was performed using MATLAB (Mathworks; Natick, MA), using the model fit function. Parameters were defined with r1>r2 and xc as positive. Each sample run was best fitted to the model to generate an r^2>0.98.
Previous work has fitted fibrin gelation kinetics to a biexponential model (see, e.g., Moreno-Arotzena et al., Materials (Basel), 8:1636-51 (2015)). In this model, gelation, as measured by the shear modulus over time, consists of a fast and slow reaction rate. Each time sweep series was fitted to the biexponential model to determine the fast (1) and slow (2) associated parameters, reaction rates and time shift parameter (Table 2 and FIG. 9). The time shift parameters (xc) for the PBS, TB, EB, and PEG groups were 19.7±7.2, 62.9±9.7, 110.6±7.6, and 20.3±5.0 sec (n=3, p<0.001) (FIG. 9A). […] This re-affirms the shifted delay in gelation onset for TB and EB groups and confirms that the effect is not due to changes in molality. To understand if there is a change in reaction rates, the ratio of the fast to slow reaction rate was compared. The ratios, r1/r2, for PBS, TB, EB and PEG groups were […] (n=3, p=0.057) (FIG. 9B).

Row | Compound | time shift parameter (xc) | G′1 | r1 | G′2 | r2 | xc
1 | Cc1cc(-c2ccc(/N=N/c3ccc4c(S(=O)(=O)O)cc(S(=O)(=O)O)c(N)c4c3O)c(C)c2)ccc1/N=N/c1ccc2c(S(=O)(=O)O)cc(S(=O)(=O)O)c(N)c2c1O [EB, Evans Blue] | 110.6 ± 7.6 s | 927 ± 395 | 3720 ± 732 | 787 ± 210 | 739 ± 205 | 111 ± 8
2 | Cc1cc(-c2ccc(/N=N/c3c(S(=O)(=O)O)cc4cc(S(=O)(=O)O)cc(N)c4c3O)c(C)c2)ccc1/N=N/c1c(S(=O)(=O)O)cc2cc(S(=O)(=O)O)cc(N)c2c1O [TB, Trypan Blue] | 62.9 ± 9.7 s | 1555 ± 92 | 2679 ± 366 | 800 ± 186 | 455 ± 131 | 63 ± 10

Reference: US20230414826A1, “FIBRIN HYDROGELS” (Mayo Foundation for Medical Education and Research, priority 2020, published 2023)
